Test results: patent publication US20100311790A1 (priority 2007, published 2010)

Columns and labels:
[1] = test system: Sclerotinia sclerotiorum; assay: Test Examples 2 and 3: preventive effect on Sclerotinia rot disease of cucumber, foliar spray; type: in vivo; conditions: cucumber (Sagami Hanjiro), flowable formulation diluted to 200 ppm, foliar spray before inoculation, 18° C. for 4 days under high humidity
Procedure: (§1) The area of lesions on the test plants at testing was visually observed, and the control effect was evaluated by comparing the area of lesions on test plants treated with the invented compound with the area of lesions on untreated plants.
Test for Showing Preventive Effect on Sclerotinia Rot Disease of Cucumber (Sclerotinia sclerotiorum)
Sand soil was packed in a plastic pot, and seeds of cucumber (variety: Sagami Hanjiro) were sowed therein and grown for 12 days in a greenhouse. […] After spraying, the plant was air-dried and PDA medium containing hyphae of Sclerotinia sclerotiorum was placed on the surface of leaves of the cucumber. After the inoculation, the plant was left at 18° C. for 4 days under high humidity, area of lesions was examined. As a result, the lesion area on the plant treated with the invented compounds (1), (3)-(27) and (28) was less than 10% of the lesion area on the untreated plant.
Sand soil was packed in a plastic pot, and seeds of cucumber (variety: Sagami Hanjiro) were sowed therein and grown for 12 days in a greenhouse. The invented compound (2) was formulated into flowable formulation in accordance with Formulation Example 6, and it was diluted with water to a given concentration (200 ppm) and was sprayed onto the foliage of the cucumber so that a sufficient amount of the compound would be applied to the surface of leaves of the cucumber. […]

[2] = test system: Botrytis cinerea; assay: Test Example 1: preventive effect on Botrytis disease of cucumber, foliar spray; type: in vivo; conditions: cucumber (Sagami Hanjiro), flowable formulation diluted to 13 ppm, foliar spray before inoculation, 12° C. for 5 days under high humidity
Procedure: as §1
Test for Showing Preventive Effect on Botrytis Disease of Cucumber (Botrytis cinerea)
Sand soil was packed in a plastic pot, and seeds of cucumber (variety: Sagami Hanjiro) were sowed therein and grown for 12 days in a greenhouse. Each of the invented compounds (2), (3), (7), (11), (12), (15), (16), (18), (19), (21), (23), (24) and (27) and the comparative compound (A) was formulated into flowable formulation in accordance with Formulation Example 6, and it was diluted with water to a given concentration (13 ppm) and was sprayed onto the foliage of the cucumber so that a sufficient amount of the compound would be applied to the surface of leaves of the cucumber. After spraying, the plant was air-dried and PDA medium containing spores of Botrytis cinerea was placed on the surface of leaves of the cucumber. After the inoculation, the plant was left at 12° C. for 5 days under high humidity, and then the area of lesions was examined. As a result, the lesion area on the plant treated with the invented compounds (2), (3), (7), (11), (12), (15), (16), (18), (19), (21), (23), (24) and (27) was less than 30% of the lesion area on the untreated plant. […]

| SMILES | lesion area on the treated plant as % of the lesion area on the untreated plant [1] | lesion area on the treated plant as % of the lesion area on the untreated plant [2] [%] |
| --- | --- | --- |
| C=CCCOc1cccc(CNC(=O)c2ccc3ncccc3c2)c1F [(2)] | less than 10% | – |
| CC(C)=CCOc1cccc(CNC(=O)c2ccc3ncccc3c2)c1 [comparative compound (A), N-[3-(3-methyl-2-butenyloxy)phenyl]methyl-quinoline-6-carboxamide] | – | 98 |
